In this assay the test system is C57BL/6 mice. The experiment in a line: Warm renal ischemia/reperfusion, 30 minutes ischemia (Example 2). The class given is in vivo. The settings on record: mean±SEM, n=6, 1 day after 30 min ischemia/reperfusion. Here is the method:
Nine Experimental groups were used as follows: • 1) Sham-operated mice sacrificed 1 day after surgery, n=6, • 2) PBS-vehicle-treated mice 15 min before ischemia/1 day reperfusion, n=6, • 3) Isotype control antibody 10 mg/kg-treated mice 15 minutes before ischemia/1 day reperfusion, n=6 (The isotype control antibody is mouse IgG1 isotype control purchased from RnD systems (catalogue number MAB002), this isotype control antibody having binding specificity for Keyhole Limpet Hemocyanin (KLH) antigen), • 4) OPN301 anti-TLR2 monoclonal antibody 10 mg/kg-treated mice 15 minutes before ischemia/1 day reperfusion, n=6, • 5) Pargyline 6 mg/kg-treated mice 15 minutes before ischemia/1 day reperfusion, n=6, • 6) PBS-vehicle-treated mice 15 minutes before ischemia/5 days reperfusion, n=6, • 7) Isotype control antibody (RnD systems catalogue number MAB002) 10 mg/kg-treated mice 15 minutes before ischemia/5 days reperfusion, n=6, • 8) OPN301 anti-TLR2 antibody 10 mg/kg-treated mice 15 minutes before ischemia/5 days reperfusion, n=6, • 9) Pargyline 6 mg/kg-treated mice 15 minutes before ischemia/5 days reperfusion, n=6. Experimental Warm Renal Ischemia/Reperfusion
Warm renal ischemia/reperfusion (I/R) experiments were adapted from a previous study (Stokman et al, 2005). Briefly, a wild type strain of C57BL/6 mice were anesthetized with 10 μl/g of a mix of 2.5 ml ketamine (Ketalar 50 mg/ml, Centravet; Lapalisse, France), 0.5 ml xylazine (Rompun 2.5%, Centravet; Lapalisse, France), and 7 ml NaCl 0.9% (Centravet; Lapalisse, France). During surgery, animals were set on a 35° C. hotplate. After a 2 millimeters incision, the jugular vein was exposed for intravenous injection (insulin syringe; VWR, Fontenay-sous-Bois, France) of 300 μl (1 min infusion) of the considered treatment. The incision was closed after haemostasis (5/0 Ethicrin thread, Ethicon; Auneau, France). Three centimetre in length abdominal cutaneous and muscular incisions were performed; renal pedicles were exposed and clamped for 30 minutes using microaneurysm clamps (AREX; Palaiseau, France). […]

For `C#CCN(C)Cc1ccccc1` [Pargyline], the “MDA level (lipid peroxidation)” value (PBS-vehicle 0.082±0.004) is listed as 0.051±0.002 nmol/mg proteins. Besides, where the note is “PBS-vehicle 63.2±9.55”, the “MPO activity (neutrophil accumulation in renal tissue)” value is 53.48±5.34 U MPO/mg protein. The “F4/80-positive staining (macrophage infiltration)” value (treated 15 min before ischemia (antibodies 10 mg/kg, pargyline 6 mg/kg), PBS-vehicle 3.24±0.21) is on record as 1.39±0.15%.

Values taken from patent US9234046B2, “Treatment of renal disease” (OPSONA Therapeutics Ltd, priority 2007, dated 2016).
